Measurements: US12485419B2, “Sorting biological and non-biological moieties using magnetic levitation” (The Board of Trustees of the Leland Stanford Junior …, priority 2015, dated 2025)

Assays:
3T3 cells = assay: Effects of Gd concentration and levitation on cell viability (live/dead assay of spheroids); assay type: cell-based; conditions: 48 hours exposure to 0, 25, 50, 100 mM Gd^+; magnetic levitation (LEV) and hanging drop (HD); FIG. 30
Description: Referring now to FIG. 30, the effects of Gd concentration and levitation on cell viability are illustrated. 3T3 cells were exposed for 48 hours to different concentration of Gd^+ (0, 25, 50, 100 mM) during magnetic levitation (LEV) and hanging drop (HD). Spheroid viability was then assessed with live/dead assay (calcein/ethidium homodimer^−1). […] The white scale bar is 100 μm.

red blood cells = test system: red blood cells
Description: The levitation of red blood cells (RBC) was as follows. Blood samples from healthy donors were received from Stanford University Blood Center. Whole blood was diluted at varying ratios in PBS containing 30 mM Gd^+. Concentrations were described in the results. Concentrations of 450 and 90 million cells/mL of blood were used to measure blood stabilization time. Varying concentrations of blood, ranging from 250 to 0.8 million cells/mL were used to correlate the width of the blood band and cell concentrations.
Referring now to FIGS. 7A-7D, the effect of drugs was monitored using the levitation device. […] FIG. 7D illustrates the actual images that were analyzed to produce the plots of FIGS. 7B and 7C. In FIG. 7D, a certain density beads was added each time for calibration experiments.
Images were taken over time in 60 minutes. […] FIG. 6B is then a graph showing the area analysis. Area of the blood were measured using an image) script developed in the lab. […] Looking at FIG. 6C, the levitation height is measured using same script. Height is directly correlated with density of cells.

| Structure (SMILES) | spheroid viability (calcein/ethidium homodimer live/dead assay) (3T3 cells) | levitation height of red blood cells (red blood cells; 75 mg/mL chloroquine spiked into red blood cells, with increasing time of exposure, FIG. 7A) | levitation height of blood sample in capillary channel (red blood cells; chloroquine at 7.5 mg/mL and 75 mg/mL, Sample-1, Sample-2, Sample-3, especially after the high dosage, FIG. 8) | density of blood (from levitation height) (red blood cells; i-LEV, higher drug concentration, within 50 minutes, FIG. 6C) |
| --- | --- | --- | --- | --- |
| O=C([O-])CN1CCN(CC(=O)[O-])CCN([C@H](CO)[C@H](O)CO)CCN(CC(=O)[O-])CC1.[Gd+3] [Gd^+] | majority of the cells in the aggregates are alive | – | – | – |
| CCN(CC)CCCC(C)Nc1ccnc2cc(Cl)ccc12 (stereo not shown) [chloroquine] | – | decreases | levels out at a very low height | higher density |
